In assay [1] the target is Tyrosine-protein kinase Lyn (Homo sapiens, UniProt P07948). The assay is described as follows: Selectivity interaction (KinomeScan (DiscoverX)) EUB0000695a LYN. As to conditions: at 100 nM.
The target in assay [2] is T1, Tyrosine-protein kinase Mer (Homo sapiens) (UniProt Q12866).
T1 sequence (whole entry): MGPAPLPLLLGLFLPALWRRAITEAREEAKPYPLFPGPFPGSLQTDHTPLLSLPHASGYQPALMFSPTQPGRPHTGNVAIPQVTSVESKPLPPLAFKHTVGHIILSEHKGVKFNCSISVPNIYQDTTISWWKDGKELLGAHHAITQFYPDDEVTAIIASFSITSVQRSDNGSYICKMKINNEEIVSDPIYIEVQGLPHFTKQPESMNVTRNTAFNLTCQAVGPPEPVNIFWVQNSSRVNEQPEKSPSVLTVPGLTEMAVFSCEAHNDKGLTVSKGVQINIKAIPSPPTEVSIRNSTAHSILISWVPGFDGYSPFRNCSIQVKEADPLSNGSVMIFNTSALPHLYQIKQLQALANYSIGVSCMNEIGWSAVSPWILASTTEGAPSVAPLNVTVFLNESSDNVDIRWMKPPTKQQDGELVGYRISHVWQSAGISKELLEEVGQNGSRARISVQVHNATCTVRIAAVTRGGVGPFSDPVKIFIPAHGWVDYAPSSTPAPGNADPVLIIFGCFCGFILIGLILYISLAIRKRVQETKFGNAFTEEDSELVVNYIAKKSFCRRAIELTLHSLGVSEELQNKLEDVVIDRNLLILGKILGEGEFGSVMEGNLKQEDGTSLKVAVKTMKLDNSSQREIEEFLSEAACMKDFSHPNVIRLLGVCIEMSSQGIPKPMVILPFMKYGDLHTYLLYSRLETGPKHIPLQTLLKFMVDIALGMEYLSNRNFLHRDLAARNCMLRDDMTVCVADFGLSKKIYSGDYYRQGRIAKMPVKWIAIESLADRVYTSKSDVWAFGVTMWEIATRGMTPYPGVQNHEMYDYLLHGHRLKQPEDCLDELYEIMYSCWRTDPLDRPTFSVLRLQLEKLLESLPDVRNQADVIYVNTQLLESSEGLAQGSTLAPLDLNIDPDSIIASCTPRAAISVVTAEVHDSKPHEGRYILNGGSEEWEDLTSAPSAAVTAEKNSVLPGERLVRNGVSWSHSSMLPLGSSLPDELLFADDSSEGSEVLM
Description: Selectivity interaction (KinomeScan (DiscoverX)) EUB0000695a MERTK. As to conditions: at 100 nM.

The target in assay [3] is Non-receptor tyrosine-protein kinase TYK2 (Homo sapiens, UniProt P29597). The assay is described as follows: Selectivity interaction (KinomeScan (DiscoverX)) EUB0000045b TYK2. As to conditions: at 1 µM.
Assay [4] addresses Mitogen-activated protein kinase 14 (Homo sapiens, UniProt Q16539). Description: Selectivity interaction (SelectScreen profiling (Invitrogen)) EUB0000607a MAPK14. As to conditions: at 2 µM.
Assay [5] has as its target Tyrosine-protein kinase ABL1 (Homo sapiens, UniProt P00519). Description: Selectivity interaction (Kinase panel (Invitrogen)) EUB0000639a ABL1. As to conditions: at 200 nM.
A further assay addresses Aurora kinase B (Homo sapiens, UniProt Q96GD4). The assay is described as follows: Selectivity interaction (ActivX KiNativ screen (kinase selectivity in THP-1 cell lysates)) EUB0000639a AURKB. The format is subcellular. As to conditions: lysate, at 1 µM.
Assay [6] addresses Serine/threonine-protein kinase 24 (Homo sapiens) (UniProt Q9Y6E0). The assay is described as follows: Selectivity interaction (ActivX KiNativ screen (kinase selectivity in THP-1 cell lysates)) EUB0000639a STK24. The format is subcellular. As to conditions: lysate, at 0.2 µM.
Assay [7] deals with T2, Protein kinase C iota type (Homo sapiens) (UniProt P41743).
T2 sequence (whole entry): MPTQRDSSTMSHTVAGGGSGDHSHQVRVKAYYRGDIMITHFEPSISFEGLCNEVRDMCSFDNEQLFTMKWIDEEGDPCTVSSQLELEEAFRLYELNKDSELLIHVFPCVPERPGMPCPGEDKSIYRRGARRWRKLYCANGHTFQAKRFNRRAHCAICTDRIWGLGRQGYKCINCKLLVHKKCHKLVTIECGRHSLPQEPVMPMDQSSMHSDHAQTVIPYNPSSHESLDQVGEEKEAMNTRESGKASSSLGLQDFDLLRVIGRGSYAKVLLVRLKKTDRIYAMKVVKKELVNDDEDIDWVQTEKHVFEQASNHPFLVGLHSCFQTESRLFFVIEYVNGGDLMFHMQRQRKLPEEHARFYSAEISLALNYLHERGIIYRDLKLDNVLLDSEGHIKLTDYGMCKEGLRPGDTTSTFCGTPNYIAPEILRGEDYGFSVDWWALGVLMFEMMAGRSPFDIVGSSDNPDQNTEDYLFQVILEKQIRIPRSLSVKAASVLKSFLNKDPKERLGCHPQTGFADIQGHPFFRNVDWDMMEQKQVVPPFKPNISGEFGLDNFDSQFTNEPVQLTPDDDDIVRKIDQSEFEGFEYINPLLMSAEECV
The assay is described as follows: Selectivity interaction (Kinase panel (Invitrogen)) EUB0000639a PRKCI. As to conditions: at 200 nM.

Assay [8] concerns the target Vascular endothelial growth factor receptor 1 (Homo sapiens) (UniProt P17948). As to conditions: at 10 µM.
Assay [9] has as its target T3, Cyclin-dependent kinase 11A (Homo sapiens) (UniProt Q9UQ88).
T3 sequence (whole entry): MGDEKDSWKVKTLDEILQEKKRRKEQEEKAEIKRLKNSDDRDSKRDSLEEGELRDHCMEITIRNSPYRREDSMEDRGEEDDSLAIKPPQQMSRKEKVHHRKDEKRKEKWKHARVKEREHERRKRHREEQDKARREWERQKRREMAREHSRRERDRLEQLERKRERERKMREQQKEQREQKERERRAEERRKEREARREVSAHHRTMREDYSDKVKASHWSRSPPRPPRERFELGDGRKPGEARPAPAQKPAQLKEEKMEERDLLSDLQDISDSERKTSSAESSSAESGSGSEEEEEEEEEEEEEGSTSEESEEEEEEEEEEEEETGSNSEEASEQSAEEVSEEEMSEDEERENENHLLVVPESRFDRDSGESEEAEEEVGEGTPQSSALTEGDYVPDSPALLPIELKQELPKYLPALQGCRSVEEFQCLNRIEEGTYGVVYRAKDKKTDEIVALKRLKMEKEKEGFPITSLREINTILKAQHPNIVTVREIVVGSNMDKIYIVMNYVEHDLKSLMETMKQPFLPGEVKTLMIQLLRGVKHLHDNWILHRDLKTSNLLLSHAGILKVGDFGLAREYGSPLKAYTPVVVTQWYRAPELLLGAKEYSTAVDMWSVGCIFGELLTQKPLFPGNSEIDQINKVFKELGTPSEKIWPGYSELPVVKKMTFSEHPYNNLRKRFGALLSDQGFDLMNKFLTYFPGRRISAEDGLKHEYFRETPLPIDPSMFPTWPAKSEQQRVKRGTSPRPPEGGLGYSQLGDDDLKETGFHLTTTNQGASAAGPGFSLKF
Description: Selectivity interaction (KinomeScan (DiscoverX)) EUB0000618a CDK11A. As to conditions: at 10 µM.

% of control and % of inhibition data for six compounds are collected here from ChEMBL document CHEMBL5465560, “Selectivity Literature for EUbOPEN Chemogenomic Library” (2024).

Molecules are shown by their SMILES.

Chain of Non-receptor tyrosine-protein kinase TYK2 (P29597 whole entry): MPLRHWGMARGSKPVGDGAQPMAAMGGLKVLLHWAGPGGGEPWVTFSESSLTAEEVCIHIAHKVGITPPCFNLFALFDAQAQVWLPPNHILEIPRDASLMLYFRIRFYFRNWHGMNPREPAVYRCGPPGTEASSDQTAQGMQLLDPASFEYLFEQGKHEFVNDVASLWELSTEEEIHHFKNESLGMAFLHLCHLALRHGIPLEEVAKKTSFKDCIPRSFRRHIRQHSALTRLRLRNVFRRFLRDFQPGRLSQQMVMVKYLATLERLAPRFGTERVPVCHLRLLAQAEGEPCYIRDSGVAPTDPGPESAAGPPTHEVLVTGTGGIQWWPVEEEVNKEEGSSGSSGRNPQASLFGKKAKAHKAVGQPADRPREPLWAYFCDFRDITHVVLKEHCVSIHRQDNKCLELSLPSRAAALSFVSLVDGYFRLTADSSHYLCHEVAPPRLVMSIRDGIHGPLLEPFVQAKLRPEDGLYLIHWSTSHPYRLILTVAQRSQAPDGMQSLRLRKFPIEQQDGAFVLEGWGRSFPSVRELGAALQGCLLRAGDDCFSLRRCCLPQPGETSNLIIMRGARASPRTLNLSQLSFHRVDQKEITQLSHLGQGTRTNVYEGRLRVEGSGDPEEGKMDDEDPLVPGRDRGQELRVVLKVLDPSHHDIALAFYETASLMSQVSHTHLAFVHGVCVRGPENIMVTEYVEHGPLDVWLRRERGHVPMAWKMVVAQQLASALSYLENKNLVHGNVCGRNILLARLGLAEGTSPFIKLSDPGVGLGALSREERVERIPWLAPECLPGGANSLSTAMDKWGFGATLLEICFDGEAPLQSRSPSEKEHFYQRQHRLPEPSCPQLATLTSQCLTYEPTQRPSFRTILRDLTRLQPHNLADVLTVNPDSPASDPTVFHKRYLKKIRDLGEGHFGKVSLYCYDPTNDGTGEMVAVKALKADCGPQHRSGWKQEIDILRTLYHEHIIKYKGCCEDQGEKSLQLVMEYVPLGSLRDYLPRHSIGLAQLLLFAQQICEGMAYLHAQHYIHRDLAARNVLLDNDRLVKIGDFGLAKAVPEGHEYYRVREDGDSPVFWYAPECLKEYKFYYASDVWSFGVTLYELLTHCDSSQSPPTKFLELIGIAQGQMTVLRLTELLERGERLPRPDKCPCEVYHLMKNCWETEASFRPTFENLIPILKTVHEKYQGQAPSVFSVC
Chain of Aurora kinase B (Q96GD4 whole entry): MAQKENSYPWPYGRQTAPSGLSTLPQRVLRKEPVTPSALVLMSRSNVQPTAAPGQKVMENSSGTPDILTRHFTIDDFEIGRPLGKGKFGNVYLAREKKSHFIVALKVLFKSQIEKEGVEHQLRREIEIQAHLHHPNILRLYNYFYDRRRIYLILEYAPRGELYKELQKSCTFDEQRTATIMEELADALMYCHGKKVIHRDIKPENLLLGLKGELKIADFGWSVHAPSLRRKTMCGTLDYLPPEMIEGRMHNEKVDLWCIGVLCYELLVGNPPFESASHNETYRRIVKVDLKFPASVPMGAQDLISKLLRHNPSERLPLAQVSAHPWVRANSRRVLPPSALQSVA
Chain of Tyrosine-protein kinase Lyn (P07948 2-512 limits assumed): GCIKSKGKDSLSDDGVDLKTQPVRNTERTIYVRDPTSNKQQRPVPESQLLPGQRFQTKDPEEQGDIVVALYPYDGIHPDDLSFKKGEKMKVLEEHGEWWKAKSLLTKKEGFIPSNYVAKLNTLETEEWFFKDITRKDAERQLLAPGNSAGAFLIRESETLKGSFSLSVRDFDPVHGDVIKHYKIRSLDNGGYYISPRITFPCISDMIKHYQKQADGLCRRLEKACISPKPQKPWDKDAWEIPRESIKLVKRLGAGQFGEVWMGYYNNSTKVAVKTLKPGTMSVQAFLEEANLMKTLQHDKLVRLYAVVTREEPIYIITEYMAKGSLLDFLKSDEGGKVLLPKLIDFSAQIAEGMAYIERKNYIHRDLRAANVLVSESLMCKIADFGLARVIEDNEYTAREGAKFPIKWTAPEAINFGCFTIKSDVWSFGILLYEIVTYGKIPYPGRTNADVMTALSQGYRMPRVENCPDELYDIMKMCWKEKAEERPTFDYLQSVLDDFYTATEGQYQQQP
Chain of Mitogen-activated protein kinase 14 (Q16539 whole entry): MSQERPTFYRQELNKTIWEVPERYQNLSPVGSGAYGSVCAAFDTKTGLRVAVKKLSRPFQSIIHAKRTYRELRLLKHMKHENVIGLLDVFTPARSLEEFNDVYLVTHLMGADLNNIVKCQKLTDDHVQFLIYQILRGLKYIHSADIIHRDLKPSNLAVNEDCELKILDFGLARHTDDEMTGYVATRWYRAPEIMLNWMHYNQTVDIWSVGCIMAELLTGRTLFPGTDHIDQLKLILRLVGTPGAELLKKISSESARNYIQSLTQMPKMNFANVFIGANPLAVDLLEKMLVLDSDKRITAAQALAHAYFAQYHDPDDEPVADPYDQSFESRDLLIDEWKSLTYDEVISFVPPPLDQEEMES
Chain of Serine/threonine-protein kinase 24 (Homo sapiens) (Q9Y6E0 whole entry, looked up): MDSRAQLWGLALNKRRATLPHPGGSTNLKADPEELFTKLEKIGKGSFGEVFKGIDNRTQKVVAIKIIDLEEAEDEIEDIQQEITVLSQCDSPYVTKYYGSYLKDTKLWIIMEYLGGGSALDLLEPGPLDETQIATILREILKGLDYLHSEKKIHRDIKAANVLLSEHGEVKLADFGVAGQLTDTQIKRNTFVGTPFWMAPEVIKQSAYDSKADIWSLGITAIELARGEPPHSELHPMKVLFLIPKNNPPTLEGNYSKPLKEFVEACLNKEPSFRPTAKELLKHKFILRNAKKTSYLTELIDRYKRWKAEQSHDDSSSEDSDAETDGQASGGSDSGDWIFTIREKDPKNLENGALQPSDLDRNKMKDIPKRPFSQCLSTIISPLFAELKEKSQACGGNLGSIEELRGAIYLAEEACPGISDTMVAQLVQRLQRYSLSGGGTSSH
Chain of Vascular endothelial growth factor receptor 1 (Homo sapiens) (P17948 whole entry): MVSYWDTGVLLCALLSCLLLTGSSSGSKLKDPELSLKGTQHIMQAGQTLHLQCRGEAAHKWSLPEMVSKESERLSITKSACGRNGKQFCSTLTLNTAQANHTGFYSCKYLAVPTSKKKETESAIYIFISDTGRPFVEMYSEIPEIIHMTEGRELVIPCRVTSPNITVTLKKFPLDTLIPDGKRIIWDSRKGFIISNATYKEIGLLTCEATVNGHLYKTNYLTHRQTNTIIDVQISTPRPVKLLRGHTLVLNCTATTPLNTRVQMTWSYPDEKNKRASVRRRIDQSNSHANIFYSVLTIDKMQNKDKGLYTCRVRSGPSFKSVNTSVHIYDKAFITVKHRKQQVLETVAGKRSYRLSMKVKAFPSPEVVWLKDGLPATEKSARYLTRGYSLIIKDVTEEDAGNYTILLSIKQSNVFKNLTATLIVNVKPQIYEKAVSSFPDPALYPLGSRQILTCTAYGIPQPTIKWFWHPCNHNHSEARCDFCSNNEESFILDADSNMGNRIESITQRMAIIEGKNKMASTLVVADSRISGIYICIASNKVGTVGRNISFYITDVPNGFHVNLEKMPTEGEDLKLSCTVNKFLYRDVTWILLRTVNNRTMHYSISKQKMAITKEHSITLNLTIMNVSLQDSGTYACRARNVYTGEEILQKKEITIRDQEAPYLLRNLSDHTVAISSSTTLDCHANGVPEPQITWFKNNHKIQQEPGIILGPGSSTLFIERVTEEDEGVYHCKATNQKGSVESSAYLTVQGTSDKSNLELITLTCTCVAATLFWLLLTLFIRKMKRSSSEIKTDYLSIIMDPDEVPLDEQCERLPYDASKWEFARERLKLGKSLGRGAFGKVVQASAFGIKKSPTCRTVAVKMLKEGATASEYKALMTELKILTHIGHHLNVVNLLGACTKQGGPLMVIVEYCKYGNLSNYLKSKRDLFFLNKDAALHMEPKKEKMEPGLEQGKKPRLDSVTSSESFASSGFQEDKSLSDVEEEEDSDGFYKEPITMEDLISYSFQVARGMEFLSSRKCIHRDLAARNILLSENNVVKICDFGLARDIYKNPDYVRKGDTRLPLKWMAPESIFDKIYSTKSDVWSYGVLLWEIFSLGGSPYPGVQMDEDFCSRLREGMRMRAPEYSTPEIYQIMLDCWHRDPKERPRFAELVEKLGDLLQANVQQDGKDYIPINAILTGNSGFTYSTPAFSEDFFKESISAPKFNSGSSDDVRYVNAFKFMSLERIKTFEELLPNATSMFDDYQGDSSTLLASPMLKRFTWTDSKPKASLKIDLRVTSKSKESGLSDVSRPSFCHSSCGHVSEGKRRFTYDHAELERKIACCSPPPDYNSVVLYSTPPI

Regarding `Cc1cc(F)c(C(=O)Nc2cccc(-c3nncn3C(C)C)n2)cc1-n1cnc(C2CC2)c1`, the figures for the % of control in assay [1] and in assay [2] were 100% and 99%, respectively.

Consider `C=CC(=O)Nc1cc(-n2c(=O)ccc3cnc4ccc(-c5ccc(NS(C)(=O)=O)cc5)cc4c32)ccc1C`, for which, in assay [3], the % of control came out at 80%.

As to `CNC(=O)Nc1ccc(-c2nc(N3CC4CCC(C3)O4)c3cnn(C4CCC5(CC4)OCCO5)c3n2)cc1`, the % of inhibition in assay [4] was 11%. For `CC[C@@H]1[C@H](F)C(=O)N[C@@H]1COc1nccc2cc(C(N)=O)c(OC)cc12` [ZIMLOVISERTIB], the % of inhibition in assay [5] was -8%; at Aurora kinase B, 20%; in [6], 5.6%; in assay [7], 5.1%. In turn, `COCC(=O)NC/C=C/c1ccc2ncnc(Nc3ccc(Oc4ccc(C)nc4)c(C)c3)c2c1` [CP-724714] registered a % of control in assay [8] of 88%.

As for `O[C@H]1CC[C@H](Nc2ncc3nc(Nc4c(F)cc(F)cc4F)n([C@H]4CCOC4)c3n2)CC1`, in assay [9], the % of control was 100%.
